Measurements: the supplement of paper PMC4862054

Each compound was assayed on BT-474 (assay: normalised response (% of control), CellTiter-Glo; higher = more viable cells (100 = DMSO, 0 = benzethonium chloride kill control)). Settings: incubation time: 72 h.
Procedure, shortened: (§1)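 Normalised signals at single concentrations make up the values. They come from breast cancer cell lines seeded (20 µl suspension) into 384-well plates with compound at 5 concentrations in 10-fold steps over a compound-specific 10,000-fold range, incubated 72 h, and read for CellTox Green fluorescence then CellTiter-Glo luminescence. Each plate was normalised to 0.1 % DMSO (100) and a positive kill control (0).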

| Compound | normalised response [%] |
| --- | --- |
| Nc1nc2[nH]cc(CCc3ccc(C(=O)N[C@@H](CCC(=O)O)C(=O)O)cc3)c2c(=O)[nH]1 [Pemetrexed] (10 nM) | 98.2 |
| CC[C@H](Nc1ncnc2[nH]cnc12)c1nc2cccc(F)c2c(=O)n1-c1ccccc1 [GS-1101] (10 nM) | 93.7 |
| Cc1cnc(NC(=O)Nc2cc(Br)c(C)cc2OC[C@@H]2CNCCO2)cn1 [Rabusertib] (0.1 nM) | 109 |
| CNC(=O)c1cc(Oc2ccc(NC(=O)Nc3cc(C(C)(C)C)nn3-c3ccc4ncccc4c3)c(F)c2)ccn1 [Rebastinib] (1 nM) | 98.8 |
| CCc1cncnc1N1CCN(Cc2nc3ccc(C(F)(F)F)cc3[nH]2)CC1 (1 nM) | 107 |
| O=C(Cc1ccc(-c2ccc(OCCN3CCOCC3)cc2)cn1)NCc1ccccc1 [KX2-391] (1 nM) | 105 |
| O=C(/C=C/c1cccnc1)NCCCCC1CCN(C(=O)c2ccccc2)CC1 [Daporinad] (0.1 nM) | 106 |
| O=C(O)C(=O)O.[NH-][C@@H]1CCCC[C@H]1[NH-].[Pt+2] [Oxaliplatin] (1 nM) | 91.9 |
| CC(=O)Nc1cccc(-n2c(=O)n(C3CC3)c(=O)c3c(Nc4ccc(I)cc4F)n(C)c(=O)c(C)c32)c1 [Trametinib] (0.025 nM) | 111 |
| O=C(O)C1(C(=O)O)CCC1.[NH2-].[NH2-].[Pt+2] [Carboplatin] (1 nM) | 98.9 |
| C[C@H]1C[C@@H]2[C@H]([C@@H](O)C[C@@]3(C)[C@H]2CC[C@]3(O)C(=O)CO)[C@@]2(C)C=CC(=O)C=C12 [Methylprednisolone] (1 nM) | 110 |
| CC[C@H](C)C(=O)O[C@H]1C[C@H](O)C=C2C=C[C@H](C)[C@H](CC[C@@H](O)C[C@@H](O)CC(=O)O)[C@H]21 [Pravastatin] (10 nM) | 98.1 |
| O=C(Cc1ccc(-c2ccc(OCCN3CCOCC3)cc2)cn1)NCc1ccccc1 [KX2-391] (10 nM) | 103 |

Each compound was assayed on MDA-MB-468 in the same assay as above. Settings: incubation time: 72 h.
Procedure, shortened: as §1

| Compound | normalised response [%] |
| --- | --- |
| Nc1nc(F)nc2c1ncn2[C@@H]1O[C@H](CO)[C@@H](O)[C@@H]1O [Fludarabine] (1 nM) | 103 |
| CC[C@@H]1C(=O)N(C)c2cnc(Nc3ccc(C(=O)NC4CCN(C)CC4)cc3OC)nc2N1C1CCCC1 [BI 2536] (0.1 nM) | 108 |
| Nc1ncn([C@H]2C[C@H](O)[C@@H](CO)O2)c(=O)n1 [Decitabine] (1 nM) | 102 |
| CC1=C(/C=C/C(C)=C/C=C/C(C)=C/C(=O)O)C(C)(C)CCC1 [Tretinoin] (1 nM) | 102 |
| COc1cc([C@@H]2c3cc4c(cc3[C@@H](O[C@@H]3O[C@@H]5CO[C@@H](c6cccs6)O[C@H]5[C@H](O)[C@H]3O)[C@H]3COC(=O)[C@H]23)OCO4)cc(OC)c1O [Teniposide] (1 nM) | 95.9 |
| CCN(CC)CCCC(C)Nc1c2ccc(Cl)cc2nc2ccc(OC)cc12 (stereo not drawn) [Mepacrine] (50 nM) | 103 |
| O=C(/C=C/c1cccnc1)NCCCCC1CCN(C(=O)c2ccccc2)CC1 [Daporinad] (1 nM) | 103 |
| Nc1nc2[nH]cc(CCc3ccc(C(=O)N[C@@H](CCC(=O)O)C(=O)O)cc3)c2c(=O)[nH]1 [Pemetrexed] (10 nM) | 93.9 |
| CC[C@H](Nc1ncnc2[nH]cnc12)c1nc2cccc(F)c2c(=O)n1-c1ccccc1 [GS-1101] (10 nM) | 99.8 |
| Cc1cnc(NC(=O)Nc2cc(Br)c(C)cc2OC[C@@H]2CNCCO2)cn1 [Rabusertib] (0.1 nM) | 101 |
| CNC(=O)c1cc(Oc2ccc(NC(=O)Nc3cc(C(C)(C)C)nn3-c3ccc4ncccc4c3)c(F)c2)ccn1 [Rebastinib] (1 nM) | 96.3 |
| CCc1cncnc1N1CCN(Cc2nc3ccc(C(F)(F)F)cc3[nH]2)CC1 (1 nM) | 109 |
| O=C(Cc1ccc(-c2ccc(OCCN3CCOCC3)cc2)cn1)NCc1ccccc1 [KX2-391] (1 nM) | 102 |
| O=C(/C=C/c1cccnc1)NCCCCC1CCN(C(=O)c2ccccc2)CC1 [Daporinad] (0.1 nM) | 96.9 |
| O=C(O)C(=O)O.[NH-][C@@H]1CCCC[C@H]1[NH-].[Pt+2] [Oxaliplatin] (1 nM) | 86.7 |
| CC(=O)Nc1cccc(-n2c(=O)n(C3CC3)c(=O)c3c(Nc4ccc(I)cc4F)n(C)c(=O)c(C)c32)c1 [Trametinib] (0.025 nM) | 99.4 |
| O=C(O)C1(C(=O)O)CCC1.[NH2-].[NH2-].[Pt+2] [Carboplatin] (1 nM) | 95.2 |
| C[C@H]1C[C@@H]2[C@H]([C@@H](O)C[C@@]3(C)[C@H]2CC[C@]3(O)C(=O)CO)[C@@]2(C)C=CC(=O)C=C12 [Methylprednisolone] (1 nM) | 104 |
| CC[C@H](C)C(=O)O[C@H]1C[C@H](O)C=C2C=C[C@H](C)[C@H](CC[C@@H](O)C[C@@H](O)CC(=O)O)[C@H]21 [Pravastatin] (10 nM) | 104 |
| O=C(Cc1ccc(-c2ccc(OCCN3CCOCC3)cc2)cn1)NCc1ccccc1 [KX2-391] (10 nM) | 94.6 |

Each compound was assayed on HDQ-P1 in the same assay as above. Settings: incubation time: 72 h.
Procedure, shortened: as §1

| Compound | normalised response [%] |
| --- | --- |
| Nc1nc(F)nc2c1ncn2[C@@H]1O[C@H](CO)[C@@H](O)[C@@H]1O [Fludarabine] (1 nM) | 103 |
| CC[C@@H]1C(=O)N(C)c2cnc(Nc3ccc(C(=O)NC4CCN(C)CC4)cc3OC)nc2N1C1CCCC1 [BI 2536] (0.1 nM) | 95.7 |
| Nc1ncn([C@H]2C[C@H](O)[C@@H](CO)O2)c(=O)n1 [Decitabine] (1 nM) | 98.2 |
| CC1=C(/C=C/C(C)=C/C=C/C(C)=C/C(=O)O)C(C)(C)CCC1 [Tretinoin] (1 nM) | 98.7 |
| COc1cc([C@@H]2c3cc4c(cc3[C@@H](O[C@@H]3O[C@@H]5CO[C@@H](c6cccs6)O[C@H]5[C@H](O)[C@H]3O)[C@H]3COC(=O)[C@H]23)OCO4)cc(OC)c1O [Teniposide] (1 nM) | 96.4 |
| CCN(CC)CCCC(C)Nc1c2ccc(Cl)cc2nc2ccc(OC)cc12 (stereo not drawn) [Mepacrine] (50 nM) | 104 |
| O=C(/C=C/c1cccnc1)NCCCCC1CCN(C(=O)c2ccccc2)CC1 [Daporinad] (1 nM) | 98.1 |
| Nc1nc2[nH]cc(CCc3ccc(C(=O)N[C@@H](CCC(=O)O)C(=O)O)cc3)c2c(=O)[nH]1 [Pemetrexed] (10 nM) | 99.5 |
| CC[C@H](Nc1ncnc2[nH]cnc12)c1nc2cccc(F)c2c(=O)n1-c1ccccc1 [GS-1101] (10 nM) | 94.2 |
| Cc1cnc(NC(=O)Nc2cc(Br)c(C)cc2OC[C@@H]2CNCCO2)cn1 [Rabusertib] (0.1 nM) | 102 |
| CNC(=O)c1cc(Oc2ccc(NC(=O)Nc3cc(C(C)(C)C)nn3-c3ccc4ncccc4c3)c(F)c2)ccn1 [Rebastinib] (1 nM) | 100 |
| CCc1cncnc1N1CCN(Cc2nc3ccc(C(F)(F)F)cc3[nH]2)CC1 (1 nM) | 105 |
| O=C(Cc1ccc(-c2ccc(OCCN3CCOCC3)cc2)cn1)NCc1ccccc1 [KX2-391] (1 nM) | 100 |
| O=C(/C=C/c1cccnc1)NCCCCC1CCN(C(=O)c2ccccc2)CC1 [Daporinad] (0.1 nM) | 98.4 |
| O=C(O)C(=O)O.[NH-][C@@H]1CCCC[C@H]1[NH-].[Pt+2] [Oxaliplatin] (1 nM) | 98.2 |
